These results are taken from US20230000844A1, “BIOMARKERS FOR NANOPARTICLE COMPOSITIONS” (Abraxis BioScience, LLC, priority 2019, published 2023).

The test system of data set [1] is malignant PEComa. Description: Case: malignant PEComa patient (TSC1 mutation) who failed everolimus, then treated with nab-sirolimus. It is filed as in vivo, human. Here is the method: A post-menopausal person with family history of lymphoma in their parent and breast, ovarian cancer in a paternal aunt, presented with abnormal uterine bleeding in July 2018. […] Following this, a laparoscopic hysterectomy with bilateral salpingo-oophorectomy was performed and pathology was consistent with malignant PEComa which stained positive for smooth muscle actin, HMB-45 and Melan-A (59 mitoses per 10 hpf).
The primary tumor was locally advanced, and no metastatic disease was present at the time of diagnosis, adjuvant chemotherapy was not administered, and the patient was monitored with serial scans.
Upon disease progression, the patient was started on 10 mg everolimus orally daily.
After failure of treatment with everolimus, the patient was treated with nab-sirolimus at 100 mg/m^2 on day 1 and day 8 of a 21 day cycle started in July of 2019. They also received stereotactic radiosurgery to the metastatic lesion in their brain.

The test system of data set [2] is tumors with TSC1 or TSC2 mutations. Particulars: 2/30 patients; cited from earlier work.
The nature of data set [3]: Stable isotope tracer ultrafiltration assay (SITUA) of rapamycin drug release from ABI-009 lots. It is filed as physicochemical. Particulars: 10 minutes incubation, 4.5% human serum albumin, 29° C. Here is the method:
A study was also undertaken to analyze rapamycin drug release from 12 lots of ABI-009 (Lots #1-10 and Lots 14-15) using a stable isotope tracer ultrafiltration assay (SITUA) (see Skoczen et al., Stable Isotope Method to Measure Drug Release from Nanomedicines, J. Control Release, 220(A):169-174 (2015). Drug release was examined at 10 μg/ml and 500 μg/ml of rapamycin following 10 minutes of incubation. Briefly, stable, isotope-labeled rapamycin was spiked into 4.5% human serum albumin (25% Albutein HSA diluted in 0.9% saline). MeOH-solvent rapamycin (as a control) or fresh reconstituted samples of each lot at 10 μg/ml or 500 μg/ml were added. After 10 minutes of equilibration at 29° C., a portion of the sample is taken and filtered using Vivacon®) 10 kDa MWCO centrifuge devices prewarmed to 29° C. The sample and the ultrafiltrate are analyzed by LC-MS to determine the concentrations of normal rapamycin and isotope-labelled rapamycin. The ultrafilterable fraction of isotope-labeled rapamycin represents a measurement of free unbound fraction.
The encapsulated and unencapsulated nanoparticle fractions can also be calculated.

For data set [4] the following is noted: in vivo; cited from earlier work.
Data set [5] relates to ABCB1/ABCG2. Particulars: cited from earlier work.
Data set [6] relates to non-PEComa cancer with TSC1, TSC2 or mTOR mutation. The data set is described as follows: ABI-009 Expanded Access Protocol: single-agent ABI-009 in non-PEComa patients with relevant mTOR pathway mutations. It counts as in vivo, human. Set-up: key: CR: disappearance of all target lesions; PR: at least a 30% decrease in the sum of the longest diameters (SLD) of target lesions; SD: neither sufficient shrinkage of target lesions to qualify for PR, nor sufficient increase to qualify for PD; PD: at least a 20% increase in the SLD of target lesions. Particulars: Patient #4, metastatic epithelial ovarian carcinoma. The text has this: Seven patients were enrolled under ABI-009 Expanded Access Protocol. See Table 14 below for information about their tumor type, relevant mutation, failed prior therapy and response to ABI-009. ABI-009 was produced according to Example 7.

In the case of `CO[C@H]1C[C@@H]2CC[C@@H](C)[C@@](O)(O2)C(=O)C(=O)N2CCCC[C@H]2C(=O)O[C@H]([C@H](C)C[C@@H]2CC[C@@H](OCCO)[C@H](OC)C2)CC(=O)[C@H](C)/C=C(\C)[C@@H](O)[C@@H](OC)C(=O)[C@H](C)C[C@H](C)/C=C/C=C/C=C/1C` [everolimus], in data set [1] (everolimus 10 mg orally daily, reduced to 5 mg), the “CT scan result 2 months after starting everolimus” value is “progressive disease”. The “adverse event related to everolimus” value in data set [1] (three weeks after beginning 10 mg orally daily) is “hospitalized due to fever and headache”. Also, in data set [2], the “responses in patients with TSC1 or TSC2 mutations” value was 7%.
For the molecule `CO[C@H]1C[C@@H]2CC[C@@H](C)[C@@](O)(O2)C(=O)C(=O)N2CCCC[C@H]2C(=O)O[C@H]([C@H](C)C[C@@H]2CC[C@@H](O)[C@H](OC)C2)CC(=O)[C@H](C)/C=C(\C)[C@@H](O)[C@@H](OC)C(=O)[C@H](C)C[C@H](C)/C=C/C=C/C=C/1C` [Free rapamycin], the “Avg. Release (%)” value is given as 97.2% in data set [3] (10 μg/ml rapamycin) and 18.3% in data set [3] (500 μg/ml rapamycin).
Turning to `COc1ccc(COc2cc3oc(=O)c4cc(C(C)O)ccc4c3cc2OC)cc1` (centres unmarked) [Palomid 529], the brain penetration entry in data set [4] is on record as “good brain penetration”. In addition, the “affinity for ABCB1/ABCG2” value in data set [5] is “lacks affinity”.
With `CC(C)n1nc(-c2ccc3oc(N)nc3c2)c2c(N)ncnc21` [MLN0128], in data set [6], the “best response on prior MLN0128” value is listed as “SD”.
